Measurements as given in patent US20060166867A1, “Novel conjugates of polysaccharides and uses thereof” (priority 2003, published 2006).
≈ marks a conversion by molar mass, not a printed value. Where “and” joins values, the source holds several entries; their conditions need not be identical. Identical values can stand only once. Like-named read-outs stand apart in the source and are kept apart here.

Assays:
VRE faecium = conditions: clinical isolate, Table 7
in vitro = assay type: cell-based; conditions: human; Table 4; tryphan blue exclusion assay for MT2 cells; read-out: Cytotoxicity
Outline: (§1)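 MT2 or cMAGI reporter cells infected with wild-type or resistant HIV-1 at 0.2-0.5 MOI for 4 days at 37° C with varying pAAC concentrations. Infection scored by counting blue-stained cMAGI cells and by microscopic syncytium assessment in MT2; cytotoxicity by trypan blue exclusion, as % dead cells.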

[1] = tested on: Enterococcus faecalis B84939-vancomycin^r; assay: MIC, broth microdilution; assay type: cell-based; conditions: Enterococcus faecalis; Gram positive clinical isolate; read-out: Minimum Inhibitory Concentration
[2] = tested on: P. aeruginosa-gentamicin^r, meropenem^r; assay: microbe, parasite or virus in culture; conditions: Pseudomonas aeruginosa, read-out: Minimum Inhibitory Concentration
A. baumannii R16998 = assay: microbe, parasite or virus in culture; conditions: Acinetobacter baumannii, R16998, read-out: Minimum Inhibitory Concentration
Enterobacter cloacae = assay: microbe, parasite or virus in culture; conditions: read-out: Minimum Inhibitory Concentration
S. epidermidis MSSE = assay: microbe, parasite or virus in culture; conditions: Staphylococcus epidermidis, read-out: Minimum Inhibitory Concentration
S. epidermidis B32954 = assay: MIC, broth microdilution; assay type: cell-based, Staphylococcus epidermidis; conditions: Staphylococcus epidermidis, B32954; Gram positive clinical isolate; read-out: Minimum Inhibitory Concentration
E. Coli-ESBL negative = assay: microbe, parasite or virus in culture; conditions: Escherichia coli, read-out: Minimum Inhibitory Concentration
Enterobacter aerogenes = assay: microbe, parasite or virus in culture; conditions: Klebsiella aerogenes, read-out: Minimum Inhibitory Concentration
E. Coli-ESBL positive = assay: microbe, parasite or virus in culture; conditions: Escherichia coli, read-out: Minimum Inhibitory Concentration
[3] = tested on: A. baumannii-amikacin^r, meropenem^r; assay: microbe, parasite or virus in culture; conditions: Acinetobacter baumannii, read-out: Minimum Inhibitory Concentration
P. aeruginosa R17093 = assay: MIC, broth microdilution; assay type: cell-based, Pseudomonas aeruginosa; conditions: Gram negative clinical isolate, read-out: Minimum Inhibitory Concentration
Serratia marcescens = assay: microbe, parasite or virus in culture; conditions: read-out: Minimum Inhibitory Concentration
S. aureus MSSA = assay: microbe, parasite or virus in culture; conditions: Staphylococcus aureus, read-out: Minimum Inhibitory Concentration
MT2 cells = assay: in vitro; assay type: cell-based; conditions: human
Outline: as §1

A. baumannii E11436 = assay: MIC, broth microdilution; assay type: cell-based, Acinetobacter baumannii; conditions: clinical isolate, Table 7
Description: Minimal Inhibition Concentration (MIC) measurements: The Minimal Inhibitory Concentration (MIC) was generally determined by the Broth Microdilution method (based on the protocol described in Clinical and Laboratory Standard Institute (CLSI) NCCLS (2003) M7-A6), as follows:
A stock solution of each of the tested compounds was prepared by diluting the compound to a 2,560 μg/ml concentration with an appropriate solvent. The stock solution was then serially 2-fold diluted in 96-well microdilution trays using Cation-Adjusted Mueller-Hinton Broth (CAMHB) until reaching the desired range of concentrations, whereas each well contained double the final working concentration. Each row further had one growth control well (medium+inoculum only), and one sterility control well (medium+tested compound). Plates were stored at −70° C. until used.
The tested microorganisms were used as fresh overnight cultures on blood agar (for gram-positive organisms) or MacConkey agar (for gram-negatives). A standardized inoculum suspension was prepared by the direct colony suspension method, using sterile saline (equivalent to a 0.5 McFarland standard).
Thus, 50 μl of the inoculum suspension were added to each tested well (except for the sterility control well), and […] was performed during 18-24 hours (depending on the tested microorganism or compound) at 35° C.

CC(=O)N[C@H](CCCNC(=N)N)C(=O)N[C@H](CCCNC(=N)N)C(=O)N[C@H](CCCNC(=N)N)C(=O)N[C@H](CCCNC(=N)N)C(=O)N[C@H](CCCNC(=N)N)C(=O)N[C@H](CCCNC(=N)N)C(=O)N[C@H](CCCNC(=N)N)C(=O)N[C@H](CCCNC(=N)N)C(=O)N[C@H](CCCNC(=N)N)C(=O)O [Compound 12, D-Arg-9-mer-NHAc]
Minimum Inhibitory Concentration (VRE faecium): > 128.0 mg/L
CC50 (in vitro): 150 µM

NCC1OC(OC2C(CO)OC(OC3C(O)C(N)CC(N)C3OC3OC(CN)C(O)C(O)C3N)C2O)C(N)C(O)C1O (stereo not drawn) [Neomycin]
MIC [1]: 64 µg/mL and 70.4 µM
MIC [2]: 128 µg/mL and 141 µM
MIC (A. baumannii R16998): 32 µg/mL and 35.2 µM
MIC (Enterobacter cloacae): 4 µg/mL and 4.4 µM
MIC (S. epidermidis MSSE): 0.5 µg/mL and 0.55 µM
MIC (S. epidermidis B32954): 0.5 µg/mL and 0.55 µM
MIC (E. Coli-ESBL negative): 1 µg/mL and 1.1 µM
MIC (Enterobacter aerogenes): 0.7 µg/mL and 0.77 µM
MIC (E. Coli-ESBL positive): 4 µg/mL and 4.4 µM
MIC [3]: 106 µM and 96 µg/mL
MIC (P. aeruginosa R17093): 211.22 µM (≈ 130 µg/mL)
MIC (P. aeruginosa R17093; Pseudomonas aeruginosa, R17093): 211 µM and 192 µg/mL
MIC (Serratia marcescens): 1 µg/mL and 1.1 µM
MIC (S. aureus MSSA): 1 µg/mL and 1.1 µM
Cytotoxicity (MT2 cells): >300 µM

D-Arg-9-mer-neomycin [Compound 14]
Minimum Inhibitory Concentration (A. baumannii E11436): 64.0 mg/L
